Source: ChEMBL document CHEMBL1201862, “PubChem BioAssay data set” (2004)
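96-well plates; 48 h exposure; 5 concentrations. Endpoints by linear interpolation between flanking doses. Not reached: highest tested concentration assigned. GI50: concentration for 50% inhibition of growth.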 The source made the active and inactive calls. Rule as the data show it: active = GI50 up to about 1.1 µM and inactive = higher.

What was measured:
Assay in all cases: NCI-60 cell line screen, 48 h
OVCAR-3 = system: OVCAR-3
PC-3 = system: PC-3
U-251 = system: U-251
NCI-H23 = system: NCI-H23
SF-268 = system: SF-268
CCRF-CEM = system: CCRF-CEM
NCI-H460 = system: NCI-H460
SW-620 = system: SW-620
OVCAR-8 = system: OVCAR-8
Hs-578T = system: Hs-578T
MDA-MB-231 = system: MDA-MB-231
BT-549 = system: BT-549
NCI-H226 = system: NCI-H226
ACHN = system: ACHN
KM12 = system: KM12
K562 = system: K562
MOLT-4 = system: MOLT-4
SK-OV-3 = system: SK-OV-3
SK-MEL-28 = system: SK-MEL-28
HOP-62 = system: HOP-62
T47D = system: T47D
UACC-62 = system: UACC-62
A498 = system: A498
TK-10 = system: TK-10
LOX IMVI = system: LOX IMVI
RXF 393 = system: RXF 393
NCI-H522 = system: NCI-H522
UO-31 = system: UO-31
SK-MEL-2 = system: SK-MEL-2
HOP-92 = system: HOP-92
OVCAR-5 = system: OVCAR-5
SF-295 = system: SF-295
MDA-MB-435 = system: MDA-MB-435
CAKI-1 = system: CAKI-1
IGROV-1 = system: IGROV-1
SNB-19 = system: SNB-19
HCC 2998 = system: HCC 2998
NCI/ADR-RES = system: NCI/ADR-RES
EKVX = system: EKVX
HCT-15 = system: HCT-15
SN12C = system: SN12C
UACC-257 = system: UACC-257
MCF7 = system: MCF7
SK-MEL-5 = system: SK-MEL-5
HCT-116 = system: HCT-116
SR = system: SR
M14 = system: M14
Malme-3M = system: Malme-3M
RPMI-8226 = system: RPMI-8226
A549 = system: A549
MDA-N = system: MDA-N
DU-145 = system: DU-145
SNB-75 = system: SNB-75
OVCAR-4 = system: OVCAR-4
HT-29 = system: HT-29
SF-539 = system: SF-539
HL-60 = system: HL-60
786-0 = system: 786-0
COLO 205 = system: COLO 205
DMS-273 = system: DMS-273
LXFL 529 = system: LXFL 529
DLD-1 = system: DLD-1
DMS-114 = system: DMS-114
M19-MEL = system: M19-MEL

For Cc1cc2cc3c(cc2c(-c2ccc([N+](=O)[O-])cc2)n1)OCO3, the GI50 (OVCAR-3) was 55.2 µM (inactive), the GI50 (PC-3) was 44.7 µM (inactive) and the GI50 (U-251) was 23.7 µM (inactive). For the same compound, the GI50 (NCI-H23) was 45 µM (inactive), the GI50 (SF-268) was 34.6 µM (inactive) and the GI50 (CCRF-CEM) was 31.6 µM (inactive). For the same compound, the GI50 (NCI-H460) was 29.7 µM (inactive), the GI50 (SW-620) was 29.4 µM (inactive) and the GI50 (OVCAR-8) was 28.5 µM (inactive). For the same compound, the GI50 (Hs-578T) was 23.3 µM (inactive), the GI50 (MDA-MB-231) was 18.6 µM (inactive) and the GI50 (BT-549) was 17.2 µM (inactive). The GI50 (NCI-H226) was 24.8 µM (inactive), the GI50 (ACHN) was 29.9 µM (inactive) and the GI50 (KM12) was 25.1 µM (inactive). For the same compound, the GI50 (K562) was 60.8 µM (inactive), the GI50 (MOLT-4) was 22.5 µM (inactive) and the GI50 (SK-OV-3) was 25.6 µM (inactive). For the same compound, the GI50 (SK-MEL-28) was 41.1 µM (inactive), the GI50 (HOP-62) was 19 µM (inactive) and the GI50 (T47D) was 34.9 µM (inactive). For the same compound, the GI50 (UACC-62) was 20.6 µM (inactive), the GI50 (A498) was > 100 µM (inactive) and the GI50 (TK-10) was 43.9 µM (inactive). For the same compound, the GI50 (LOX IMVI) was 41.2 µM (inactive), the GI50 (RXF 393) was 32.7 µM (inactive) and the GI50 (NCI-H522) was 14.4 µM (inactive). For the same compound, the GI50 (UO-31) was 13.5 µM (inactive), the GI50 (SK-MEL-2) was 39.1 µM (inactive) and the GI50 (HOP-92) was 3.77 µM (inactive). For the same compound, the GI50 (OVCAR-5) was > 100 µM (inactive), the GI50 (SF-295) was 50 µM (inactive) and the GI50 (MDA-MB-435) was 65.9 µM (inactive). For the same compound, the GI50 (CAKI-1) was 38.4 µM (inactive), the GI50 (IGROV-1) was 15.5 µM (inactive) and the GI50 (SNB-19) was 21.2 µM (inactive). The GI50 (HCC 2998) was 74 µM (inactive), the GI50 (NCI/ADR-RES) was 44.6 µM (inactive) and the GI50 (EKVX) was 62.2 µM (inactive). The GI50 (HCT-15) was 26.5 µM, the GI50 (SN12C) was 28.7 µM (inactive) and the GI50 (UACC-257) was 80.2 µM (inactive). For the same compound, the GI50 (MCF7) was 37.8 µM (inactive), the GI50 (SK-MEL-5) was 17.4 µM (inactive) and the GI50 (HCT-116) was 36.8 µM (inactive). The GI50 (SR) was 27.9 µM (inactive), the GI50 (M14) was 88.7 µM (inactive) and the GI50 (Malme-3M) was 61.1 µM (inactive). For the same compound, the GI50 (RPMI-8226) was 35.8 µM (inactive), the GI50 (A549) was 25.8 µM (inactive) and the GI50 (MDA-N) was 54.2 µM (inactive). For the same compound, the GI50 (DU-145) was 62.8 µM (inactive), the GI50 (SNB-75) was 19.7 µM (inactive) and the GI50 (OVCAR-4) was 17.9 µM (inactive). For the same compound, the GI50 (HT-29) was 56.8 µM (inactive), the GI50 (SF-539) was 22.6 µM (inactive) and the GI50 (HL-60) was 57.5 µM (inactive). For the same compound, the GI50 (786-0) was 23.6 µM (inactive) and the GI50 (COLO 205) was 37.7 µM (inactive).
CCOC(=O)CC(NC(=O)c1nc[nH]c1[N+](=O)[O-])C(=O)OCC (stereo not given) was tested, and the GI50 (OVCAR-3) was 38.6 µM (inactive), the GI50 (U-251) was 15.3 µM (inactive) and the GI50 (NCI-H23) was 22.6 µM (inactive). The GI50 (SF-268) was 40.6 µM (inactive), the GI50 (CCRF-CEM) was 37.4 µM (inactive) and the GI50 (NCI-H460) was 52 µM (inactive). For the same compound, the GI50 (SW-620) was 37.2 µM (inactive), the GI50 (DMS-273) was 40.6 µM (inactive) and the GI50 (OVCAR-8) was 32.1 µM (inactive). For the same compound, the GI50 (NCI-H226) was 23 µM (inactive), the GI50 (ACHN) was 42.2 µM (inactive) and the GI50 (KM12) was 65.8 µM (inactive). For the same compound, the GI50 (K562) was 38.2 µM (inactive), the GI50 (MOLT-4) was 43.1 µM (inactive) and the GI50 (SK-OV-3) was > 100 µM (inactive). The GI50 (SK-MEL-28) was > 100 µM (inactive), the GI50 (LXFL 529) was 41.5 µM (inactive) and the GI50 (HOP-62) was 46.7 µM (inactive). The GI50 (UACC-62) was 66.1 µM (inactive), the GI50 (A498) was 61.7 µM (inactive) and the GI50 (TK-10) was 24 µM (inactive). The GI50 (DLD-1) was 39 µM (inactive), the GI50 (LOX IMVI) was 60.1 µM (inactive) and the GI50 (NCI-H522) was 48.9 µM (inactive). The GI50 (UO-31) was 77.6 µM (inactive), the GI50 (SK-MEL-2) was 92.7 µM (inactive) and the GI50 (SF-295) was 33.5 µM (inactive). The GI50 (CAKI-1) was 47 µM (inactive), the GI50 (IGROV-1) was 40.5 µM (inactive) and the GI50 (SNB-19) was 56.6 µM (inactive). The GI50 (HCC 2998) was 30.5 µM (inactive), the GI50 (EKVX) was 50.1 µM (inactive) and the GI50 (HCT-15) was 78.5 µM. For the same compound, the GI50 (SN12C) was 42.5 µM (inactive), the GI50 (UACC-257) was 34.1 µM (inactive) and the GI50 (SK-MEL-5) was 56 µM (inactive). For the same compound, the GI50 (HCT-116) was 43.4 µM (inactive), the GI50 (SR) was 44.3 µM (inactive) and the GI50 (M14) was 67.8 µM (inactive). For the same compound, the GI50 (Malme-3M) was > 100 µM (inactive), the GI50 (RPMI-8226) was 29.2 µM (inactive) and the GI50 (DMS-114) was 43.3 µM (inactive). For the same compound, the GI50 (A549) was 60.1 µM (inactive), the GI50 (SNB-75) was > 100 µM (inactive) and the GI50 (OVCAR-4) was 50.7 µM (inactive). For the same compound, the GI50 (M19-MEL) was 82 µM (inactive), the GI50 (HT-29) was 40.4 µM (inactive) and the GI50 (SF-539) was 59.6 µM (inactive). The GI50 (HL-60) was > 10 µM (inactive), the GI50 (786-0) was 52 µM (inactive) and the GI50 (COLO 205) was 49.2 µM (inactive).
